The values below come from US20240239806A1, “COMPOUNDS, COMPOSITIONS AND METHODS OF TREATING DISORDERS” (Chengdu Anticancer Bioscience, Ltd., priority 2021, published 2024).

The test system of one assay is RPEMYC^H2B-GFP cells. In words: Phenotypic screening assay (mitotic arrest, polyploidy). It counts as cell-based. The settings on record: 1 nM to 30 μM, read-out: Min. Effective conc. for Polyploidy (≥5%). An outline of the steps:
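RPE cells expressing MYC and H2B-EGFP treated with compound at 1 nM–30 μM; mitotic index scored at 24 h and polyploidy (DNA content) at 48 h by automated imaging, with reads at 24, 48 or 72 h. Hits show transient mitotic arrest followed by polyploid accumulation.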
For `COC(=O)c1cc(OC)cc(Oc2ncnc3cc[nH]c23)c1` [Compound 34, methyl 3-((5H-pyrrolo[3,2-d]pyrimidin-4-yl)oxy)-5-methoxybenzoate], the minimal effective concentration is 0.001 to 1 µM.

On to `COc1cc(OC)cc(Oc2ccnc3ccccc23)c1` [Compound 7, 4-(3,5-dimethoxyphenoxy)quinoline], for which the minimal effective concentration is 0.001 to 1 µM.

In the case of `COC(=O)c1cc(OC)cc(Oc2ncnc3cc(OC)c(OC)cc23)c1` [Compound 29], the minimal effective concentration fell in the range of 0.001 to 1 µM.

Still in this assay, the particulars now being: 1 nM to 30 μM, read-out: Mitotic Arrest (≥5%).
Take `COC(=O)c1cc(OC)cc(Oc2ncnc3cc[nH]c23)c1` [Compound 34, methyl 3-((5H-pyrrolo[3,2-d]pyrimidin-4-yl)oxy)-5-methoxybenzoate]: the minimal effective concentration is 0.001 to 1 µM.

`COc1cc(OC)cc(Oc2ccnc3ccccc23)c1` [Compound 7, 4-(3,5-dimethoxyphenoxy)quinoline]: the minimal effective concentration is 0.001 to 1 µM.

As to `COC(=O)c1cc(OC)cc(Oc2ncnc3cc(OC)c(OC)cc23)c1` [Compound 29], the minimal effective concentration is 0.001 to 1 µM.

Still in this assay, the particulars now being: 1 nM to 30 μM, read-out: Proliferative arrest (>50%).
Take `COC(=O)c1cc(OC)cc(Oc2ncnc3cc[nH]c23)c1` [Compound 34, methyl 3-((5H-pyrrolo[3,2-d]pyrimidin-4-yl)oxy)-5-methoxybenzoate]: the IC50 was in the range of 1 to 1000 nM.

Regarding `COc1cc(OC)cc(Oc2ccnc3ccccc23)c1` [Compound 7, 4-(3,5-dimethoxyphenoxy)quinoline], the IC50 lay within 1 to 1000 nM.

`COC(=O)c1cc(OC)cc(Oc2ncnc3cc(OC)c(OC)cc23)c1` [Compound 29]: the IC50 fell in the range of 1 to 1000 nM.

The next assay concerns HCT116. Put plainly: MECP in cancer cell line. It is filed as cell-based. The settings on record: Homo sapiens, HCT-116. In a few lines:
(§1)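 Potency reported in bins: A 1 nM-1.0 μM, B to 10.0 μM, C to 30.0 μM, D above 30.0 μM. Compounds (1 nM-30 μM) applied to cells in DMEM/5% FBS; imaging-based readout at 24-72 h of mitotic index (raised at 24 h) and polyploidy (48 h), marking cytokinetic failure.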
Compound `COC(=O)c1cc(OC)cc(Oc2ncnc3cc[nH]c23)c1` [Compound 34, methyl 3-((5H-pyrrolo[3,2-d]pyrimidin-4-yl)oxy)-5-methoxybenzoate] registered a minimal effective concentration of 0.001 to 1 µM.

`COc1cc(OC)cc(Oc2ccnc3ccccc23)c1` [Compound 7, 4-(3,5-dimethoxyphenoxy)quinoline] displayed a minimal effective concentration of 0.001 to 1 µM.

Regarding `COC(=O)c1cc(OC)cc(Oc2ncnc3cc(OC)c(OC)cc23)c1` [Compound 29], the minimal effective concentration was 1 to 10 µM.

Another assay concerns Hela. In words: MECP in cancer cell line. It is filed as cell-based. The settings on record: Homo sapiens. An outline of the steps: as §1
In the case of `COC(=O)c1cc(OC)cc(Oc2ncnc3cc[nH]c23)c1` [Compound 34, methyl 3-((5H-pyrrolo[3,2-d]pyrimidin-4-yl)oxy)-5-methoxybenzoate], the minimal effective concentration fell in the range of 0.001 to 1 µM.

As to `COc1cc(OC)cc(Oc2ccnc3ccccc23)c1` [Compound 7, 4-(3,5-dimethoxyphenoxy)quinoline], the minimal effective concentration was 0.001 to 1 µM.

Regarding `COC(=O)c1cc(OC)cc(Oc2ncnc3cc(OC)c(OC)cc23)c1` [Compound 29], the minimal effective concentration was in the range of 0.001 to 1 µM.

In the next assay the test system is MDA-MB-231. In words: MECP in cancer cell line. It is filed as cell-based. The settings on record: Homo sapiens. In a few lines: as §1
`COC(=O)c1cc(OC)cc(Oc2ncnc3cc[nH]c23)c1` [Compound 34, methyl 3-((5H-pyrrolo[3,2-d]pyrimidin-4-yl)oxy)-5-methoxybenzoate] displayed a minimal effective concentration of 0.001 to 1 µM.

`COc1cc(OC)cc(Oc2ccnc3ccccc23)c1` [Compound 7, 4-(3,5-dimethoxyphenoxy)quinoline]: the minimal effective concentration lay in the range of 0.001 to 1 µM.

`COC(=O)c1cc(OC)cc(Oc2ncnc3cc(OC)c(OC)cc23)c1` [Compound 29] had a minimal effective concentration of 1 to 10 µM.

Another assay concerns NCI-H460. Put plainly: MECP in cancer cell line. It counts as cell-based. The settings on record: Homo sapiens. An outline of the steps:
as §1
Compound `COC(=O)c1cc(OC)cc(Oc2ncnc3cc[nH]c23)c1` [Compound 34, methyl 3-((5H-pyrrolo[3,2-d]pyrimidin-4-yl)oxy)-5-methoxybenzoate] came in with a minimal effective concentration of 1 to 10 µM.

With `COc1cc(OC)cc(Oc2ccnc3ccccc23)c1` [Compound 7, 4-(3,5-dimethoxyphenoxy)quinoline], the minimal effective concentration fell in the range of 1 to 10 µM.

Compound `COC(=O)c1cc(OC)cc(Oc2ncnc3cc(OC)c(OC)cc23)c1` [Compound 29] had a minimal effective concentration of 1 to 10 µM.

For another assay, the system named is NCI-H596. In words: MECP in cancer cell line. It is filed as cell-based. The settings on record: Homo sapiens. In a few lines:
as §1
Compound `COC(=O)c1cc(OC)cc(Oc2ncnc3cc[nH]c23)c1` [Compound 34, methyl 3-((5H-pyrrolo[3,2-d]pyrimidin-4-yl)oxy)-5-methoxybenzoate] displayed a minimal effective concentration of 0.001 to 1 µM.

`COc1cc(OC)cc(Oc2ccnc3ccccc23)c1` [Compound 7, 4-(3,5-dimethoxyphenoxy)quinoline] came in with a minimal effective concentration of 0.001 to 1 µM.

`COC(=O)c1cc(OC)cc(Oc2ncnc3cc(OC)c(OC)cc23)c1` [Compound 29] returned a minimal effective concentration of 0.001 to 1 µM.

In another assay the test system is T2 HCC. Put plainly: MECP in cancer cell line. It counts as cell-based. The settings on record: Mus musculus. In a few lines:
as §1
The compound `COC(=O)c1cc(OC)cc(Oc2ncnc3cc[nH]c23)c1` [Compound 34, methyl 3-((5H-pyrrolo[3,2-d]pyrimidin-4-yl)oxy)-5-methoxybenzoate] registered a minimal effective concentration of 0.001 to 1 µM.

`COc1cc(OC)cc(Oc2ccnc3ccccc23)c1` [Compound 7, 4-(3,5-dimethoxyphenoxy)quinoline] displayed a minimal effective concentration of 1 to 10 µM.

`COC(=O)c1cc(OC)cc(Oc2ncnc3cc(OC)c(OC)cc23)c1` [Compound 29] yielded a minimal effective concentration of 0.001 to 1 µM.

The subject of the next assay is NCI-H23. In words: MECP in cancer cell line. The settings on record: Homo sapiens. It counts as cell-based. An outline of the steps: as §1
Regarding `COC(=O)c1cc(OC)cc(Oc2ncnc3cc[nH]c23)c1` [Compound 34, methyl 3-((5H-pyrrolo[3,2-d]pyrimidin-4-yl)oxy)-5-methoxybenzoate], the minimal effective concentration is 0.001 to 1 µM.

Compound `COc1cc(OC)cc(Oc2ccnc3ccccc23)c1` [Compound 7, 4-(3,5-dimethoxyphenoxy)quinoline] showed a minimal effective concentration of 0.001 to 1 µM.

With `COC(=O)c1cc(OC)cc(Oc2ncnc3cc(OC)c(OC)cc23)c1` [Compound 29], the minimal effective concentration fell in the range of 0.001 to 1 µM.

The next assay has as its system HCT116. In words: MTT assay of cellular proliferation. It counts as cell-based. The settings on record: Homo sapiens, HCT-116, 50% inhibition of cellular proliferation. An outline of the steps: (§2)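 EC50 for 50% growth inhibition came from MTT formazan absorbance at 570 nm after 3–4 h dye incubation. Beforehand, cells grown to 20–30% confluence (15–24 h) in DMEM/5% FBS were treated with compound over 1 nM–30 μM.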
For orientation: Tetrazolium assays rely on reduction of a dye to a coloured formazan, in cell work by metabolically active cells.
Usually EC50 stands for the concentration that produces a half-maximal response. `COC(=O)c1cc(OC)cc(Oc2ncnc3cc[nH]c23)c1` [Compound 34, methyl 3-((5H-pyrrolo[3,2-d]pyrimidin-4-yl)oxy)-5-methoxybenzoate] yielded an EC50 of 1 to 1000 nM.

As for `COc1cc(OC)cc(Oc2ccnc3ccccc23)c1` [Compound 7, 4-(3,5-dimethoxyphenoxy)quinoline], the EC50 was 1 to 1000 nM.

`COC(=O)c1cc(OC)cc(Oc2ncnc3cc(OC)c(OC)cc23)c1` [Compound 29] came in with an EC50 of 1000 to 10000 nM.

In another assay the test system is Hela. Put plainly: MTT assay of cellular proliferation. The settings on record: Homo sapiens, 50% inhibition of cellular proliferation. It is filed as cell-based. An outline of the steps:
as §2
On to `COC(=O)c1cc(OC)cc(Oc2ncnc3cc[nH]c23)c1` [Compound 34, methyl 3-((5H-pyrrolo[3,2-d]pyrimidin-4-yl)oxy)-5-methoxybenzoate], for which the EC50 lay in the range of 1 to 1000 nM.

`COc1cc(OC)cc(Oc2ccnc3ccccc23)c1` [Compound 7, 4-(3,5-dimethoxyphenoxy)quinoline]: the EC50 lay in the range of 1000 to 10000 nM.

The compound `COC(=O)c1cc(OC)cc(Oc2ncnc3cc(OC)c(OC)cc23)c1` [Compound 29] displayed an EC50 of 1 to 1000 nM.

A further assay deals with MDA-MB-231. Put plainly: MTT assay of cellular proliferation. It counts as cell-based. The settings on record: Homo sapiens; MDA-MB-231, MTT, 50% inhibition of cellular proliferation. An outline of the steps: as §2
With `COC(=O)c1cc(OC)cc(Oc2ncnc3cc[nH]c23)c1` [Compound 34, methyl 3-((5H-pyrrolo[3,2-d]pyrimidin-4-yl)oxy)-5-methoxybenzoate], the EC50 lay within 1 to 1000 nM.

Compound `COc1cc(OC)cc(Oc2ccnc3ccccc23)c1` [Compound 7, 4-(3,5-dimethoxyphenoxy)quinoline] gave an EC50 of 1 to 1000 nM.

`COC(=O)c1cc(OC)cc(Oc2ncnc3cc(OC)c(OC)cc23)c1` [Compound 29] returned an EC50 of 1 to 1000 nM.

The test system of a further assay is NCI-H23. In words: MTT assay of cellular proliferation. The settings on record: Homo sapiens, 50% inhibition of cellular proliferation. It counts as cell-based. An outline of the steps: as §2
`COC(=O)c1cc(OC)cc(Oc2ncnc3cc[nH]c23)c1` [Compound 34, methyl 3-((5H-pyrrolo[3,2-d]pyrimidin-4-yl)oxy)-5-methoxybenzoate]: the EC50 lay within 1 to 1000 nM.

With `COc1cc(OC)cc(Oc2ccnc3ccccc23)c1` [Compound 7, 4-(3,5-dimethoxyphenoxy)quinoline], the EC50 lay within 1 to 1000 nM.

Turning to `COC(=O)c1cc(OC)cc(Oc2ncnc3cc(OC)c(OC)cc23)c1` [Compound 29], the EC50 lay within 1 to 1000 nM.

Another assay has as its system NCI-H460. Put plainly: MTT assay of cellular proliferation. The settings on record: Homo sapiens, 50% inhibition of cellular proliferation. It is filed as cell-based. In a few lines:
as §2
In turn, `COC(=O)c1cc(OC)cc(Oc2ncnc3cc[nH]c23)c1` [Compound 34, methyl 3-((5H-pyrrolo[3,2-d]pyrimidin-4-yl)oxy)-5-methoxybenzoate] returned an EC50 of more than 30000 nM.

Turning to `COc1cc(OC)cc(Oc2ccnc3ccccc23)c1` [Compound 7, 4-(3,5-dimethoxyphenoxy)quinoline], the EC50 lay in the range of 1000 to 10000 nM.

Compound `COC(=O)c1cc(OC)cc(Oc2ncnc3cc(OC)c(OC)cc23)c1` [Compound 29] displayed an EC50 of more than 30000 nM.

The test system of another assay is NCI-H596. Put plainly: MTT assay of cellular proliferation. It counts as cell-based. The settings on record: Homo sapiens, 50% inhibition of cellular proliferation. An outline of the steps:
as §2
For the compound `COC(=O)c1cc(OC)cc(Oc2ncnc3cc[nH]c23)c1` [Compound 34, methyl 3-((5H-pyrrolo[3,2-d]pyrimidin-4-yl)oxy)-5-methoxybenzoate], the EC50 lay in the range of 1 to 1000 nM.

`COc1cc(OC)cc(Oc2ccnc3ccccc23)c1` [Compound 7, 4-(3,5-dimethoxyphenoxy)quinoline] returned an EC50 of 1000 to 10000 nM.

On to `COC(=O)c1cc(OC)cc(Oc2ncnc3cc(OC)c(OC)cc23)c1` [Compound 29], for which the EC50 lay in the range of 1 to 1000 nM.

The test system of the next assay is T2 HCC. Put plainly: MTT assay of cellular proliferation. It counts as cell-based. The settings on record: Mus musculus, 50% inhibition of cellular proliferation. An outline of the steps:
as §2
`COC(=O)c1cc(OC)cc(Oc2ncnc3cc[nH]c23)c1` [Compound 34, methyl 3-((5H-pyrrolo[3,2-d]pyrimidin-4-yl)oxy)-5-methoxybenzoate] displayed an EC50 of 1 to 1000 nM.

The compound `COc1cc(OC)cc(Oc2ccnc3ccccc23)c1` [Compound 7, 4-(3,5-dimethoxyphenoxy)quinoline] registered an EC50 of 1000 to 10000 nM.

`COC(=O)c1cc(OC)cc(Oc2ncnc3cc(OC)c(OC)cc23)c1` [Compound 29] showed an EC50 of 1 to 1000 nM.

A further assay relates to T98G. In words: MTT assay of cellular proliferation. It is filed as cell-based. The settings on record: Homo sapiens, 50% inhibition of cellular proliferation. In a few lines: as §2
The compound `COC(=O)c1cc(OC)cc(Oc2ncnc3cc[nH]c23)c1` [Compound 34, methyl 3-((5H-pyrrolo[3,2-d]pyrimidin-4-yl)oxy)-5-methoxybenzoate] gave an EC50 of more than 30000 nM.

As for `COc1cc(OC)cc(Oc2ccnc3ccccc23)c1` [Compound 7, 4-(3,5-dimethoxyphenoxy)quinoline], the EC50 is 1 to 1000 nM.

`COC(=O)c1cc(OC)cc(Oc2ncnc3cc(OC)c(OC)cc23)c1` [Compound 29] had an EC50 of 1000 to 10000 nM.
